How the values were obtained:
[1] = 101 kPa, Liquid; for viscosity: Capillary tube (Ostwald / Ubbelohde) method; for speed of sound: Sing-around technique in a fixed-path interferometer
[2] = xn = mol fraction of the nth substance listed; details: 101 kPa, Liquid, x1 = 1; for viscosity: Capillary tube (Ostwald / Ubbelohde) method; for speed of sound: Sing-around technique in a fixed-path interferometer

CC(C)CCCC(C)CCCC(C)CCCCC(C)CCCC(C)CCCC(C)C (stereo not given) [2,6,10,15,19,23-hexamethyltetracosane]
[1]
Details | speed of sound [m/s] | viscosity [mPa·s]
298.15 K | 1381.9 | 28.26
303.15 K | 1364.1 | 22.09
308.15 K | 1346.5 | 17.77

[1], Vibrating tube method
Details | mass density [kg/m3]
298.15 K | 805.122
303.15 K | 801.912
308.15 K | 798.709

CCCCO [butan-1-ol]
[1]
Details | mass density [kg/m3] | speed of sound [m/s] | viscosity [mPa·s]
298.15 K | 805.907 | 1240.5 | 2.573
303.15 K | 803.155 | 1226.5 | 2.275
308.15 K | 799.249 | 1209.8 | 1.981

CCCCO [butan-1-ol] + CC(C)CCCC(C)CCCC(C)CCCCC(C)CCCC(C)CCCC(C)C
[2]
Details | speed of sound [m/s] | viscosity [mPa·s]
298.15 K | 1240.5 | 2.573
303.15 K | 1226.5 | 2.275
308.15 K | 1209.8 | 1.981

[2], Vibrating tube method
Details | mass density [kg/m3]
298.15 K | 805.907
303.15 K | 803.155
308.15 K | 799.249

CCCCO [butan-1-ol] + CCCCCCCCCCCCCCCC
[2]
Details | mass density [kg/m3] | speed of sound [m/s] | viscosity [mPa·s]
298.15 K | 805.907 | 1240.5 | 2.573
303.15 K | 803.155 | 1226.5 | 2.275
308.15 K | 799.249 | 1209.8 | 1.981

CCCCCCCCCCCCCCCC [hexadecane]
[1]
Details | mass density [kg/m3] | speed of sound [m/s] | viscosity [mPa·s]
298.15 K | 770.456 | 1338.6 | 3.041
303.15 K | 766.981 | 1320 | 2.706
308.15 K | 763.52 | 1301.7 | 2.409

From the NIST ThermoML archive (doi:10.1021/je7007654)
